Among the test systems are HCC-2998 colon; HT29 colon; KM12 colon; M14 melanoma; NCI-H226 lung; NCI-H23 lung; OVCAR-5 ovarian; RPMI-8226 leukemia; TK-10 renal; U251 CNS.
What all share (assay): NCI tumour cell line growth inhibition, 48 h

The text below walks through data of PubChem BioAssay (NCI).

Several values for one entry are separate records, joined by “and”; a condition that tells them apart may be missing. Equal values may be shown once.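 Values below derive from 48-hour exposures of cells grown in 96-well plates, with endpoints linearly interpolated between the two concentrations bracketing the appropriate inhibition level. At the GI50, growth is halved. TGI denotes the concentration required for complete inhibition of growth.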 Bounds are passed on as bounds.

With `O=C(O)CNc1c2ccccc2nc2ccccc12`, the TGI with HCC-2998 colon, in the assay with HT29 colon, in the assay on KM12 colon, in the assay on M14 melanoma, with NCI-H226 lung and in the assay with NCI-H23 lung was over 100 µM each time. The TGI in the assay on OVCAR-5 ovarian, in the assay on RPMI-8226 leukemia, in the assay with TK-10 renal and in the assay with U251 CNS was over 100 µM in each case.

As to `COc1c(O)c2c(c3cc(C(=O)N4CCc5c4c(O)c(OC)c4[nH]c(C(=O)N6CC7CC78C6=CC(=O)c6[nH]cc(C)c68)cc54)[nH]c13)CCN2C(N)=O` (stereo not given), the GI50 is 0.173 µM in the assay with HCC-2998 colon; 0.00254 µM in the assay on HT29 colon; 0.172 µM in the assay on M14 melanoma; 0.0152 µg/mL in the assay with OVCAR-5 ovarian; 0.0259 µg/mL with TK-10 renal. Further, the TGI in the assay with HCC-2998 colon is 0.174 µM and 1.02 µM; in the assay on KM12 colon, 9.37 nM and 929 nM and 0.0348 µg/mL; in the assay on NCI-H226 lung, 1.47 nM and 276 nM and 0.0163 µg/mL; in the assay on NCI-H23 lung it was 0.00242 µM; with OVCAR-5 ovarian it was 0.0519 µg/mL; with RPMI-8226 leukemia, 313 nM and 11.9 µM and 0.159 µg/mL. Besides, the TGI with TK-10 renal was 222 nM and 0.0678 µg/mL; with U251 CNS, 2.66 nM and 305 nM and 0.00324 µg/mL.

Take `COc1ccc(/C=C/C(=O)c2cc3c(N)c(C(=O)Nc4ccccc4Cl)sc3nc2C)cc1`: the GI50 in the assay with HCC-2998 colon is 8 µM; with HT29 colon, 1.98 µM; in the assay on KM12 colon it was 3.48 µM; in the assay on M14 melanoma, 0.481 µM; in the assay with NCI-H226 lung it was 2.43 µM; in the assay with NCI-H23 lung it was 4.58 µM. Further, the GI50 was over 50 µM in the assay with OVCAR-5 ovarian, 5.72 µM in the assay with RPMI-8226 leukemia, 2.64 µM in the assay with TK-10 renal and 3.36 µM in the assay on U251 CNS. Moreover, the TGI with HCC-2998 colon was over 50 µM; in the assay with HT29 colon it was over 50 µM; with KM12 colon, over 50 µM; in the assay on M14 melanoma, over 50 µM; in the assay with NCI-H226 lung, 17.4 µM; with NCI-H23 lung it was over 50 µM. The TGI in the assay with OVCAR-5 ovarian is over 50 µM; with RPMI-8226 leukemia it was over 50 µM; with TK-10 renal it was 30.5 µM; with U251 CNS, 29.6 µM.

Take `C[C@]12CCC3[C@@H](C[C@@H]4SC(Nc5ccccc5)=N[C@@]45CC(=O)CC[C@]35C)[C@@H]1CCC2=O` (stereo not given in full): the GI50 was 18.2 µM with HCC-2998 colon; 3.9 µM in the assay on HT29 colon; 8.27 µM in the assay with KM12 colon; 7.88 µM with M14 melanoma; 7.36 µM in the assay with NCI-H226 lung; 18.1 µM in the assay on NCI-H23 lung. Moreover, the GI50 is 24.5 µM in the assay with OVCAR-5 ovarian, 2.73 µM with RPMI-8226 leukemia, 7.46 µM in the assay on TK-10 renal and 4.41 µM with U251 CNS. For the same molecule, the TGI in the assay on HCC-2998 colon was 44.8 µM; in the assay on HT29 colon, 17.6 µM; in the assay on KM12 colon, 29.3 µM; in the assay with M14 melanoma, 50.9 µM; in the assay on NCI-H226 lung, 45 µM; with NCI-H23 lung it was over 100 µM. The TGI in the assay on OVCAR-5 ovarian is over 100 µM; in the assay on RPMI-8226 leukemia it was 7.44 µM; in the assay on TK-10 renal, 54.8 µM; in the assay with U251 CNS it was 19.3 µM.

Regarding `OCc1cn(Cc2cccc(Cl)c2)c2ccccc12`, the GI50 was 12 µM with HCC-2998 colon; 1.83 µM with HT29 colon; 16.2 µM with KM12 colon; 11.3 µM in the assay on M14 melanoma; 0.0313 µM with NCI-H226 lung; 13.3 µM in the assay with NCI-H23 lung. Also, the GI50 is 2.63 µM in the assay with OVCAR-5 ovarian, 0.632 µM in the assay with RPMI-8226 leukemia, under 0.0145 µM with TK-10 renal and 0.865 µM in the assay on U251 CNS. The TGI came out at 28.3 µM with HCC-2998 colon; 34.3 µM with HT29 colon; 33.8 µM in the assay on KM12 colon; 29.6 µM with M14 melanoma; 0.222 µM with NCI-H226 lung; 43.5 µM in the assay on NCI-H23 lung. In addition, the TGI in the assay on OVCAR-5 ovarian is 8.89 µM; with RPMI-8226 leukemia it was 20 µM; in the assay on TK-10 renal, 0.21 µM; in the assay with U251 CNS, 22.6 µM.

For the molecule `O=C(/C=C/c1cccnc1)NCCCCC1CCN(C(=O)c2ccccc2)CC1`, the TGI in the assay on HCC-2998 colon, in the assay on HT29 colon, with KM12 colon, with M14 melanoma, in the assay with NCI-H226 lung and in the assay on NCI-H23 lung was over 100 µM each time. Moreover, the TGI in the assay with OVCAR-5 ovarian, in the assay with RPMI-8226 leukemia, with TK-10 renal and in the assay on U251 CNS was over 100 µM each time. Also, the GI50 in the assay with HT29 colon is under 0.01 µM; in the assay with KM12 colon it was 0.0145 µM and < 0.0118 µM; in the assay on M14 melanoma, under 0.01 µM; in the assay with NCI-H226 lung, > 100 µM and 62.3 µM; in the assay with NCI-H23 lung, over 100 µM; with OVCAR-5 ovarian it was 27.7 µM. In addition, the GI50 with TK-10 renal is over 100 µM.

Turning to `N[C@@H](Cc1c[nH]c2ccccc12)C(=O)NC1CCN(C(=O)c2c[nH]c3ccccc23)CC1`, the GI50 in the assay on HCC-2998 colon is over 100 µM; with HT29 colon it was over 100 µM; in the assay on KM12 colon, 84.8 µM; with M14 melanoma, over 100 µM; with NCI-H226 lung it was over 100 µM; in the assay with NCI-H23 lung, over 100 µM. The GI50 in the assay with OVCAR-5 ovarian, in the assay with RPMI-8226 leukemia, in the assay on TK-10 renal and in the assay on U251 CNS was over 100 µM each time. Also, the TGI in the assay with HCC-2998 colon, with HT29 colon, in the assay on KM12 colon, in the assay on M14 melanoma, in the assay on NCI-H226 lung and in the assay on NCI-H23 lung was over 100 µM each time. The TGI in the assay on OVCAR-5 ovarian, in the assay with RPMI-8226 leukemia, in the assay on TK-10 renal and in the assay with U251 CNS was over 100 µM in each case.

Take `CC(=O)OC[C@H]1O[C@@H](n2ccc(=O)[nH]c2=O)[C@H](OC(C)=O)[C@@H]1OC(C)=O`: the GI50 in the assay on HCC-2998 colon, in the assay on HT29 colon, in the assay on KM12 colon, in the assay with M14 melanoma, with NCI-H226 lung and in the assay on NCI-H23 lung was over 100 µM each time. Also, the GI50 in the assay with OVCAR-5 ovarian, in the assay with RPMI-8226 leukemia, with TK-10 renal and with U251 CNS was over 100 µM throughout. The TGI with HCC-2998 colon, with HT29 colon, in the assay with KM12 colon, in the assay with M14 melanoma, with NCI-H226 lung and in the assay with NCI-H23 lung was over 100 µM each time. In addition, the TGI with OVCAR-5 ovarian, with RPMI-8226 leukemia, with TK-10 renal and in the assay with U251 CNS was over 100 µM in each case.
